# According to patent publication US11807625B2, “Capsid inhibitors for the prevention of HIV” (Gilead Sciences, Inc., priority 2019, dated 2023):
# Several values for one entry are separate records, joined by “and”; a condition that tells them apart may be missing. Equal entries are not always repeated.
# Test: PK of compound of Formula (Ia) after single subcutaneous dose of solution formulations in beagle dogs
# Format: in vivo
# Settings: individual dogs
# Protocol: Formulations containing the compound of Formula (Ia), or a pharmaceutically acceptable salt thereof, were prepared as solutions and optionally administered subcutaneously or intramuscularly to rats, rabbits, and/or dogs.
# A solution of about 400 mg/mL of the compound of Formula (Ia) having 17.00 w/w % water, 36.40 w/w % PEG 300, 35.20 w/w % of a sodium salt of a compound of Formula (Ia), 5.00 w/w % ethanol, and 6.40 w/w % poloxamer 188 was prepared. The solution was administered subcutaneously to male beagle dogs at a dose level of about 12 mg/kg and male Wistar Han rats at a dose level of about 50 mg/kg. The pharmacokinetic profiles were determined, and the results for dogs are summarized in Table and Table, while the results for rats are summarized in Table and Table below.
# A solution of about 500 mg/mL of the compound of Formula (Ia) having 14.06 w/w % water, 30.12 w/w % PEG 300, […] of a sodium salt of a compound of Formula (Ia), 5.00 w/w % ethanol, and 6.40 w/w % poloxamer 188 was prepared. The solution was administered subcutaneously to male beagle dogs at a dose level of about 12 mg/kg and male Wistar Han rats at a dose level of about 50 mg/kg. The pharmacokinetic profiles were determined, and the results for dogs are summarized in Table and Table, while the results for rats are summarized in Table and Table below.
# A solution of about 300 mg/mL of the compound of Formula (Ia) having 23.33 w/w % water, 48.99 w/w % PEG 300, 26.47 w/w % of a sodium salt of a compound of Formula (Ia), and 1.21 w/w % poloxamer 188 was prepared. The solution was administered subcutaneously to male beagle dogs at a dose level of about 6 mg/kg and male Wistar Han rats at a dose level of about 50 mg/kg. The pharmacokinetic profiles were determined, and the results for dogs are summarized in Table and Table, while the results for rats are summarized in Table and Table below.
# A solution of about 400 mg/mL of the compound of Formula (Ia) having 18.80 w/w % water, 40.25 w/w % PEG 300, 34.38 w/w % of a sodium salt of a compound of Formula (Ia), 5.00 w/w % ethanol, and 1.57 w/w % poloxamer 188 was prepared. The solution was administered subcutaneously to male beagle dogs at a dose level of about 12 mg/kg and male Wistar Han rats at a dose level of about 50 mg/kg. The pharmacokinetic profiles were determined, and the results for dogs are summarized in Table and Table, while the results for rats are summarized in Table and Table below.
# A solution of about 500 mg/mL of the compound of Formula (Ia) having 16.29 w/w % water, 34.88 w/w % PEG 300, 41.92 w/w % of a sodium salt of a compound of Formula (Ia), 5.00 w/w % ethanol, and 1.91 w/w % poloxamer 188 was prepared. The solution was administered subcutaneously to male beagle dogs at a dose level of about 12 mg/kg and male Wistar Han rats at a dose level of about 50 mg/kg. The pharmacokinetic profiles were determined, and the results for dogs are summarized in Table and Table, while the results for rats are summarized in Table and Table below.
# A solution of about 400 mg/mL of the compound of Formula (Ia) having 20.90 w/w % water, 44.72 w/w % PEG 300, and 34.38 w/w % of a sodium salt of a compound of Formula (Ia) was prepared. The solution was administered subcutaneously to male beagle dogs at a dose level of about 12 mg/kg and male Wistar Han rats at a dose level of about 50 mg/kg. The pharmacokinetic profiles were determined, and the results for dogs are summarized in Table and Table, while the results for rats are summarized in Table and Table below.
# A solution of about 400 mg/mL of the compound of Formula (Ia) having 19.90 w/w % water, 42.59 w/w % PEG 300, 34.38 w/w % of a sodium salt of a compound of Formula (Ia), and 3.13 w/w % poloxamer 188 was prepared. The solution was administered subcutaneously to male beagle dogs at a dose level of about 12 mg/kg and male Wistar Han rats at a dose level of about 50 mg/kg. […]
compound,measurement,setting,value
CC(C)(C#Cc1ccc(-c2ccc(Cl)c3c(NS(C)(=O)=O)nn(CC(F)(F)F)c23)c([C@H](Cc2cc(F)cc(F)c2)NC(=O)Cn2nc(C(F)(F)F)c3c2C(F)(F)[C@@H]2C[C@H]32)n1)S(C)(=O)=O [compound of Formula (Ia)],Plasma concentration,"0 h, SC 6 mg/kg, solution V, 300 mg/mL",BLQ
same,Plasma concentration,"0 h, SC 12 mg/kg, solution T, 400 mg/mL",BLQ
same,Plasma concentration,"0 h, SC 12 mg/kg, solution U, 500 mg/mL",BLQ
same,Plasma concentration,"1.00 h, SC 6 mg/kg, solution V, 300 mg/mL",BLQ
same,Plasma concentration,"1.00 h, SC 12 mg/kg, solution T, 400 mg/mL, 12 mg/kg",10.5 nM and 4.75 nM and 2.96 nM
same,Plasma concentration,"1.00 h, SC 12 mg/kg, solution U, 500 mg/mL, 12 mg/kg",4.85 nM and 2.05 nM and 9.86 nM
same,Plasma concentration,"3.00 h, SC 6 mg/kg, solution V, 300 mg/mL, 6 mg/kg",BLQ and 3.25 nM
same,Plasma concentration,"3.00 h, SC 12 mg/kg, solution T, 400 mg/mL, 12 mg/kg",26.1 nM and 18.6 nM and 9.64 nM
same,Plasma concentration,"3.00 h, SC 12 mg/kg, solution U, 500 mg/mL, 12 mg/kg",22.9 nM and 7.00 nM and 36.1 nM
same,Plasma concentration,"8.00 h, SC 6 mg/kg, solution V, 300 mg/mL, 6 mg/kg",11.6 nM and 11.4 nM
same,Plasma concentration,"8.00 h, SC 12 mg/kg, solution T, 400 mg/mL, 12 mg/kg",84.5 nM and 50.3 nM
same,Plasma concentration,"8.00 h, SC 12 mg/kg, solution U, 500 mg/mL, 12 mg/kg",68.7 nM and 26.4 nM and 88.4 nM
same,Plasma concentration,"24.0 h, SC 6 mg/kg, solution V, 300 mg/mL, 6 mg/kg",25.7 nM and 22.6 nM
same,Plasma concentration,"24.0 h, SC 12 mg/kg, solution T, 400 mg/mL, 12 mg/kg",254 nM and 187 nM
same,Plasma concentration,"24.0 h, SC 12 mg/kg, solution U, 500 mg/mL, 12 mg/kg",101 nM and 92.7 nM and 207 nM
same,Plasma concentration,"48.0 h, SC 6 mg/kg, solution V, 300 mg/mL, 6 mg/kg",27.9 nM and 29.4 nM
same,Plasma concentration,"48.0 h, SC 12 mg/kg, solution T, 400 mg/mL, 12 mg/kg",166 nM and 380 nM and 179 nM
same,Plasma concentration,"48.0 h, SC 12 mg/kg, solution U, 500 mg/mL, 12 mg/kg",94.1 nM and 94.8 nM
same,Plasma concentration,"72.0 h, SC 6 mg/kg, solution V, 300 mg/mL, 6 mg/kg",29.6 nM and 31.5 nM
same,Plasma concentration,"72.0 h, SC 12 mg/kg, solution T, 400 mg/mL, 12 mg/kg",105 nM and 452 nM and 112 nM
same,Plasma concentration,"72.0 h, SC 12 mg/kg, solution U, 500 mg/mL, 12 mg/kg",62.3 nM and 64.0 nM
same,Plasma concentration,"96.0 h, SC 6 mg/kg, solution V, 300 mg/mL, 6 mg/kg",28.8 nM and 29.6 nM
same,Plasma concentration,"96.0 h, SC 12 mg/kg, solution T, 400 mg/mL, 12 mg/kg",89.8 nM and 523 nM and 83.8 nM
same,Plasma concentration,"96.0 h, SC 12 mg/kg, solution U, 500 mg/mL, 12 mg/kg",45.7 nM and 62.6 nM
same,Plasma concentration,"168 h, SC 6 mg/kg, solution V, 300 mg/mL, 6 mg/kg",34.5 nM and 41.4 nM
same,Plasma concentration,"168 h, SC 12 mg/kg, solution T, 400 mg/mL, 12 mg/kg",105 nM and 408 nM and 151 nM
same,Plasma concentration,"168 h, SC 12 mg/kg, solution U, 500 mg/mL, 12 mg/kg",55.9 nM and 49.6 nM and 187 nM
same,Plasma concentration,"336 h, SC 12 mg/kg, solution T, 400 mg/mL, 12 mg/kg",353 nM and 250 nM
same,Plasma concentration,"336 h, SC 12 mg/kg, solution U, 500 mg/mL, 12 mg/kg",155 nM and 187 nM
same,Plasma concentration,"504 h, SC 12 mg/kg, solution T, 400 mg/mL, 12 mg/kg",229 nM and 199 nM
same,Plasma concentration,"504 h, SC 12 mg/kg, solution U, 500 mg/mL, 12 mg/kg",166 nM and 129 nM
same,Plasma concentration,"672 h, SC 12 mg/kg, solution T, 400 mg/mL, 12 mg/kg",106 nM and 90.6 nM
same,Plasma concentration,"672 h, SC 12 mg/kg, solution U, 500 mg/mL, 12 mg/kg",106 nM and 101 nM and 38.7 nM
same,Plasma concentration,"840 h, SC 12 mg/kg, solution T, 400 mg/mL, 12 mg/kg",139 nM and 69.8 nM and 63.7 nM
same,Plasma concentration,"840 h, SC 12 mg/kg, solution U, 500 mg/mL, 12 mg/kg",107 nM and 69.7 nM and 41.2 nM
same,Plasma concentration,"1008 h, SC 12 mg/kg, solution T, 400 mg/mL, 12 mg/kg",71.1 nM and 74.2 nM
same,Plasma concentration,"1008 h, SC 12 mg/kg, solution U, 500 mg/mL, 12 mg/kg",83.5 nM and 61.1 nM and 30.4 nM
same,Plasma concentration,"1344 h, SC 12 mg/kg, solution T, 400 mg/mL, 12 mg/kg",35.6 nM and 30.6 nM
same,Plasma concentration,"1344 h, SC 12 mg/kg, solution U, 500 mg/mL, 12 mg/kg",38.5 nM and 22.5 nM
same,Plasma concentration,"1680 h, SC 12 mg/kg, solution T, 400 mg/mL, 12 mg/kg",34.6 nM and 17.3 nM
same,Plasma concentration,"1680 h, SC 12 mg/kg, solution U, 500 mg/mL, 12 mg/kg",25.7 nM and 27.7 nM and 10.5 nM
same,Plasma concentration,"2016 h, SC 12 mg/kg, solution T, 400 mg/mL, 12 mg/kg",7.9 nM (2×) and 19.6 nM
same,Plasma concentration,"2016 h, SC 12 mg/kg, solution U, 500 mg/mL, 12 mg/kg",10.7 nM and 13.8 nM and 6.40 nM
same,Plasma concentration,"2352 h, SC 12 mg/kg, solution T, 400 mg/mL, 12 mg/kg",7.6 nM and 5.7 nM
same,Plasma concentration,"2352 h, SC 12 mg/kg, solution U, 500 mg/mL, 12 mg/kg",8.8 nM and 10.2 nM and 3.45 nM
same,Plasma concentration,"3696 h, SC 6 mg/kg, solution V, 300 mg/mL",BLQ
same,Plasma concentration,"4032 h, SC 6 mg/kg, solution V, 300 mg/mL",BLQ
